# Measured values from patent US10179770B2, “Quinolines derivatives as novel anticancer agents” (GENOSCIENCE PHARMA, priority 2013, dated 2019).
# Legend:
# Experiment in all cases: NCI-60 screen (SRB)
# Assay type in all cases: cell-based
# [1] = tested on: SF-268; details: SF-268 (CNS)
# Protocol: (§1) The human tumor cell lines of the cancer screening panel are grown in RPMI 1640 medium containing 5% fetal bovine serum and 2 mM L-glutamine. For a typical screening experiment, cells are inoculated into 96 well microtiter plates in 100 μL at plating densities ranging from 5,000 to 40,000 cells/well depending on the doubling time of individual cell lines. After cell inoculation, the microtiter plates are incubated at 37° C., 5% CO2, 95% air and 100% relative humidity for 24 h prior to addition of experimental drugs.
# (§2) After 24 h, two plates of each cell line are fixed in situ with TCA, to represent a measurement of the cell population for each cell line at the time of drug addition (Tz). Experimental drug is solubilized in dimethyl sulfoxide at 400-fold the desired final maximum test concentration and stored frozen prior to use. At the time of drug addition, an aliquot of frozen concentrate is thawed and diluted to twice the desired final maximum test concentration with complete medium containing 50 μg/ml gentamicin. Additional four, 10-fold or ½ log serial dilutions are made to provide a total of five drug concentrations plus control. Aliquots of 100 μl of these different drug dilutions are added to the appropriate microtiter wells already containing 100 μl of medium, resulting in the required final drug concentrations.
# (§3) Following drug addition, the plates are incubated for an additional 48 h at 37° C., 5% CO2, 95% air, and 100% relative humidity. For adherent cells, the assay is terminated by the addition of cold TCA. Cells are fixed in situ by the gentle addition of 50 μl of cold 50% (w/v) TCA (final concentration, 10% TCA) and incubated for 60 minutes at 4° C. The supernatant is discarded, and the plates are washed five times with tap water and air dried. Sulforhodamine B (SRB) solution (100 μl) at 0.4% (w/v) in 1% acetic acid is added to each well, and plates are incubated for 10 minutes at room temperature. After staining, unbound dye is removed by washing five times with 1% acetic acid and the plates are air dried. Bound stain is subsequently solubilized with 10 mM trizma base, and the absorbance is read on an automated plate reader at a wavelength of 515 nm. For suspension cells, the methodology is the same except that the assay is terminated by fixing settled cells at the bottom of the wells by gently adding 50 μl of 80% TCA (final concentration, 16% TCA). Using the seven absorbance measurements [time zero, (Tz), control growth, (C), and test growth in the presence of drug at the five concentration levels (Ti)], the percentage growth is calculated at each of the drug concentrations levels.
# (§4) Percentage growth inhibition is calculated as: [(Ti−Tz)/(C−Tz)]×100 for concentrations for which Ti>/=Tz (1) [(Ti−Tz)/Tz]×100 for concentrations for which Ti<Tz (2)
# (§5) Growth inhibition of 50% (GI50) is calculated from [(Ti−Tz)/(C−Tz)]×100=50 (3)
# (§6) which is the drug concentration resulting in a 50% reduction in the net protein increase (as measured by SRB staining) in control cells during the drug incubation.
# (§7) The drug concentration resulting in total growth inhibition (TGI) is calculated from Ti=Tz (4)
# (§8) The LC50 (concentration of drug resulting in a 50% reduction in the measured protein at the end of the drug treatment as compared to that at the beginning) indicating a net loss of cells following treatment is calculated from [(Ti−Tz)/Tz]×100=−50 (5)
# (§9) Values are calculated for each of these three parameters if the level of activity is reached; however, if the effect is not reached or is exceeded, the value for that parameter is expressed as greater or less than the maximum or minimum concentration tested.
# [2] = tested on: NCI/ADR-RES; details: NCI/ADR-RES (Ovarian)
# Protocol: as §1, §2, §3, §4, §5, §6, §7, §8, §9
# [3] = tested on: MDA-MB-231/ATCC; details: MDA-MB-231/ATCC (Breast)
# Protocol: as §1, §2, §3, §4, §5, §6, §7, §8, §9
# [4] = tested on: KM12; details: KM12 (Colon)
# Protocol: as §1, §2, §3, §4, §5, §6, §7, §8, §9
# [5] = tested on: SF-295; details: SF-295 (CNS)
# Protocol: as §1, §2, §3, §4, §5, §6, §7, §8, §9
# [6] = tested on: LOX IMVI; details: LOX IMVI (Melanoma)
# Protocol: as §1, §2, §3, §4, §5, §6, §7, §8, §9
# [7] = tested on: A549/ATCC; details: A549/ATCC (Non-Small Cell Lung)
# Protocol: as §1, §2, §3, §4, §5, §6, §7, §8, §9
# [8] = tested on: RXF393; details: RXF393 (Renal)
# Protocol: as §1, §2, §3, §4, §5, §6, §7, §8, §9
# [9] = tested on: NCI-H226; details: NCI-H226 (Non-Small Cell Lung)
# Protocol: as §1, §2, §3, §4, §5, §6, §7, §8, §9
# [10] = tested on: IGROVI; details: IGROVI (Ovarian)
# Protocol: as §1, §2, §3, §4, §5, §6, §7, §8, §9
# [11] = tested on: MOLT-4; details: MOLT-4 (Leukemia)
# Protocol: as §1, §2, §3, §4, §5, §6, §7, §8, §9
# [12] = tested on: HCT-116; details: HCT-116 (Colon)
# Protocol: as §1, §2, §3, §4, §5, §6, §7, §8, §9
# [13] = tested on: NCI-H23; details: NCI-H23 (Non-Small Cell Lung)
# Protocol: as §1, §2, §3, §4, §5, §6, §7, §8, §9
# [14] = tested on: MALME-3M; details: MALME-3M (Melanoma)
# Protocol: as §1, §2, §3, §4, §5, §6, §7, §8, §9
# [15] = tested on: MDA-MB-468
# Protocol: as §1, §2, §3, §4, §5, §6, §7, §8, §9
# [16] = tested on: HOP-92; details: HOP-92 (Non-Small Cell Lung)
# Protocol: as §1, §2, §3, §4, §5, §6, §7, §8, §9
# [17] = Homo sapiens, read-out: LC50 (the source's name)
compound,measurement,setting,value
"CC(C)(C)NC1CCN(c2cc(-c3ccc(Cl)cc3)nc3ccccc23)CC1.Cl.Cl [XII-4, 2-(4-chloro-phenyl)-4-(4-N-tert-butylamino-piperidin-1-yl)quinoline dihydrochloride]",Growth percent at 10 μM,[1],+ (cell growth 60 > % < 80)
same,Growth percent at 10 μM,[2],+ (cell growth 60 > % < 80)
same,Growth percent at 10 μM,[3],×× (cell growth −20 < % > −40)
same,Growth percent at 10 μM,[4],+ (cell growth 60 > % < 80)
same,Growth percent at 10 μM,[5],− (cell growth % > 80)
same,Growth percent at 10 μM,[6],++++ (cell growth 0 > % < 20)
same,Growth percent at 10 μM,[7],++ (cell growth 40 > % < 60)
same,Growth percent at 10 μM,[8]; 10 μM,+++ (cell growth 20 > % < 40)
same,Growth percent at 10 μM,[9],− (cell growth % > 80)
same,Growth percent at 10 μM,[10],++ (cell growth 40 > % < 60)
same,Growth percent at 10 μM,[11],++ (cell growth 40 > % < 60)
same,Growth percent at 10 μM,[12],+++ (cell growth 20 > % < 40)
same,Growth percent at 10 μM,[13],− (cell growth % > 80)
same,Growth percent at 10 μM,[14],××× (cell growth −40 < % > −60)
same,Growth percent at 10 μM,[15]; MDA-MB-468 (Breast),×× (cell growth −20 < % > −40)
same,Growth percent at 10 μM,[16],++ (cell growth 40 > % < 60)
"CCN(CC)C1CCN(C(C)c2cc(-c3ccccc3)nc3ccccc23)CC1.Cl.Cl (stereo not shown) [XIX-3, 2-phenyl-4-{1-[4-(N,N-diethylamino)piperidin-1-yl]-eth-1-yl}quinoline dihydrochloride]",GI50,[1]; Homo sapiens,10 µM
same,CC50,[1]; [17],55 µM
same,TGI,[1],24 µM
same,Growth percent at 10 μM,[1],+ (cell growth 60 > % < 80)
same,GI50,[2]; Homo sapiens,12 µM
same,LC50 (concentration giving 50% net cell kill),[2]; Homo sapiens,56 µM
same,TGI,[2],26 µM
same,Growth percent at 10 μM,[2],+ (cell growth 60 > % < 80)
same,GI50,[3]; Homo sapiens,3 µM
same,CC50,[3]; [17],47 µM
same,TGI,[3],14 µM
same,Growth percent at 10 μM,[3],++ (cell growth 40 > % < 60)
same,GI50,[4]; Homo sapiens,10 µM
same,CC50,[4]; [17],50 µM
same,TGI,[4],22 µM
same,Growth percent at 10 μM,[4],++ (cell growth 40 > % < 60)
same,GI50,[5]; Homo sapiens,4 µM
same,CC50,[5]; [17],48 µM
same,TGI,[5],15 µM
same,Growth percent at 10 μM,[5],− (cell growth % > 80)
same,GI50,[6]; Homo sapiens,4 µM
same,CC50,[6]; [17],44 µM
same,TGI,[6],15 µM
same,Growth percent at 10 μM,[6],++ (cell growth 40 > % < 60)
same,TGI,[7],31 µM
same,Growth percent at 10 μM,[7],+ (cell growth 60 > % < 80)
same,GI50,[7]; Homo sapiens,15 µM
same,CC50,[7]; [17],63 µM
same,GI50,"[8]; Homo sapiens, RXF 393",4 µM
same,CC50,"[8]; Homo sapiens, RXF 393, read-out: LC50 (the source's name)",17 µM
same,TGI,[8],17 µM
same,GI50,[9]; Homo sapiens,19 µM
same,CC50,[9]; [17],74 µM
same,TGI,[9],38 µM
same,Growth percent at 10 μM,[9],− (cell growth % > 80)
same,GI50,[10]; Homo sapiens,5 µM
same,CC50,[10]; [17],63 µM
same,TGI,[10],21 µM
same,Growth percent at 10 μM,[10],++ (cell growth 40 > % < 60)
same,GI50,[11]; Homo sapiens,4 µM
same,CC50,[11]; [17],49 µM
same,TGI,[11],15 µM
same,Growth percent at 10 μM,[11],++++ (cell growth % < 20)
same,TGI,[12],19 µM
same,Growth percent at 10 μM,[12],++ (cell growth 40 > % < 60)
same,GI50,[12]; Homo sapiens,5 µM
same,CC50,[12]; [17],51 µM
same,GI50,[13]; Homo sapiens,> 100 µM
same,CC50,[13]; [17],> 100 µM
same,TGI,[13],>100 µM
same,Growth percent at 10 μM,[13],− (cell growth % > 80)
same,GI50,[14]; Homo sapiens,2 µM
same,CC50,[14]; [17],7 µM
same,TGI,[14],4 µM
same,Growth percent at 10 μM,[14],×× (cell growth −20 > % < −40)
same,CC50,"[15]; Homo sapiens, MDA-MB-468, read-out: LC50",38 µM
same,GI50,"[15]; Homo sapiens, MDA-MB-468 (Breast)",3 µM
same,TGI,[15]; MDA-MB-468 (Breast),10 µM
same,Growth percent at 10 μM,[15]; MDA-MB-468 (Breast),+++ (cell growth 20 > % < 40)
same,TGI,[16],17 µM
same,Growth percent at 10 μM,[16],++ (cell growth 40 > % < 60)
same,GI50,[16]; Homo sapiens,3 µM
same,CC50,[16]; [17],47 µM
